The source of these data is patent publication EP2272817A1, “PAI-1 INHIBITOR” (Institute of Medicinal Molecular Design, Inc., priority 2008, dated 2009).

Each structure is given as a SMILES string. Read-outs that look alike come from different tables or passages of the source. Where only a bound is given, the exact number is not on record here.

Experiment [1] deals with T1, recombinant human PAI-1 (Homo sapiens, UniProt P05121). Briefly: biochemical.
Method: To this solution, 6 µl of 80 nM recombinant human PAI-1 (Molecular Innovations, Inc.) solution prepared with Tris buffer was added, and the plate was incubated for 5 minutes at room temperature. Furthermore, 30 µl of 800 IU/ml two-chain tPA (Activity Standard; American diagnostica, inc.) prepared with Tris buffer was added, and the mixed solution was incubated for 15 minutes at room temperature. Then, 30 µl of 400 µM fluorogenic substrate (Pyr-Gly-Arg-MCA; Peptide Institute, Inc.) for tPA prepared with Tris buffer was added and reacted for 30 minutes at room temperature.
50 mM Tris, 150 mM NaCl, 10 µg/ml BSA, 0.01 % Tween80 (SIGMA-ALDRICH Corporation)
In experiment [2] the target is T1, recombinant human PAI-1. The experiment in a line: Test Example 4: Human PAI-1 Inhibitory Activity (amount of PAI-1 bound to plate-coated one-chain tPA, ELISA). The experiment is classed as biochemical. Set-up: purchased Molecular Innovations, Inc. Particulars: human PAI-1 bound to tPA, read-out: Inhibition Rate of PAI-1 Activity (%); for inhibition at 0.3 µM: Compound Concentration 0.3µM; for inhibition at 1 µM: Compound Concentration 1µM; for inhibition at 3 µM: Compound Concentration 3µM. As for the experimental part: 100 µl of tPA solution, where one-chain recombinant tPA (hereinafter reffered to as tPA; American diagnostica, inc.) had been diluted with Buffer A to acheive a concentration of 10 µg/ml, was added to each well of a 96-well plate (Nunc Maxisorp), and the plate was incubated for one night at 4 °C to be coated with tPA. Then, after suction of tPA solution from the 96-well plate, the plate was rinsed successively with Buffer A and Buffer B. To Buffer B, solutions of the compound according to the present invention dissolved with DMSO (final DMSO concentration: 0.2 %) and recombinant human PAI-1 (Molecular Innovations, Inc.) were added. The mixtures were blended so that the final concentrations would be 0.1 to 3.0 µM and 50 ng/ml respectively, and were incubated for 15 minutes on ice. These mixed solutions were added to the rinsed 96-well plate at 100 µl/well, and incubated for 60 minutes at room temperature. To prepare a calibration curve, PAI-1 solutions without the compound according to the present invention (solutions where the final concentrations being 100, 50, 25, 12.5, 6.25, 3.13, or 1.56 ng/ml PAI-1) were added at 100 µl/well, and the plate was incubated for 60 minutes at room temperature, as standard.
After incubation, the reaction mixture was removed by suction, and each well was rinsed with Wash Buffer. Next, anti-human PAI-1 monoclonal antibody (PROGEN Inc.) diluted with Buffer C to be 3.0 µg/ml was added to the 96-well plate at 100 µl/well, and the plate was incubated for 1 hour at room temperature. After rinsing each well with Wash Buffer, alkaline phosphatase-labeled goat anti-mouse IgG (H+L) (Jackson ImmunoResearch, Inc.) diluted with Buffer D to be 0.12 µg/ml was added at 100 µl/well, and the plate was incubated for 1 hour at room temperature. After rinsing each well with Wash Buffer, 1.0 mg/ml p-Nitrophenyl Phosphate (SIGMA) was added to the 96-well plate at 100 µl/well to start the reaction. After 30 to 60 minutes, 25 µl of 0.5 N NaOH was added to stop the reaction, and the absorbance was measured at 405 nm using a multiplate reader (GENios; TECAN G.M.B.H.).
Based on the calibration curve prepared from the standard wells, amounts of PAI-1 bound to tPA in the wells that had been treated with the compound according to the present invention were calculated, and the PAI-1 inhibition rates by the compounds according to the present invention were obtained by the following equation. [API-1InhibitionRate(%)] = [1-(amountofPAI-1boundtotPaonthewellbytreatmentwiththecompondaccordingtothepresentinvention)/(amountofPAI-1boundtotPAonthewellbytreatmentwithPAI-1solutionnotincledingthecompondaccordingtotheinvention(solution having the final concentration of 50 nb/ml PAI-1)] × 100 [formula] • <Composition of Buffer A> 0.1 M Tris-HCl, 150 mM NaCl, pH 7.7 • <Composition of Buffer B> 50 mM sodium phosphate, 0.1 M NaCl, 1 mM EDTA, pH 6.6 • <Composition of Buffer C> 50 mM sodium phosphate, 100 mM NaCl, pH 7.4 • <Composition of Buffer D> 0.01 M Tris-HCl, 0.25 M NaCl, pH 8.0 • <Compositon of Wash Buffer> 0.05 % Tween 20, 0.1 % BSA in Buffer A • <Composition of p-Nitrophenyl Phosphate solution> 1 M Diethanolamine 0.5 mM MgCl2, p-Nitrophenyl phosphate, pH 9.8
In general terms: ELISA stands for enzyme-linked immunosorbent assay.

In the next experiment the target is T2, recombinant rat PAI-1 (Rattus norvegicus, UniProt P20961).
T2 sequence (P20961 24-402): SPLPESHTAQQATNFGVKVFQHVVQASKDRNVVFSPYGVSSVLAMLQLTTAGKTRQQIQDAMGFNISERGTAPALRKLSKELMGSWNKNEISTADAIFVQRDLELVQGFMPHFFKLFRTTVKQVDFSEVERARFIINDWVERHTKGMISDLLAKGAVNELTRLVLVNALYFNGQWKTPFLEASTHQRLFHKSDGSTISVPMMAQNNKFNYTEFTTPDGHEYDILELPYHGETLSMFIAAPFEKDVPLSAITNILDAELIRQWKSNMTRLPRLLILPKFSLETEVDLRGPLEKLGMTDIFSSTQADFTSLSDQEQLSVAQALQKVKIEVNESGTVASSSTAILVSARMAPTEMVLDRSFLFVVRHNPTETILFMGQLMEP
Briefly: biochemical. Conditions: read-out: Inhibition Rate of PAI-1 Activity (%).

The target of experiment [3] is T1, recombinant human PAI-1. Briefly: Test Example 2: Human PAI-1 Inhibitory Activity (pH 7.4 HEPES buffer, 10 minutes incubation with two-chain tPA). It is filed as biochemical. The arrangement: purchased Molecular Innovations, Inc. Particulars: read-out: Inhibition Rate of PAI-1 Activity (%). The procedure:
0.1 M HEPES, 0.1 M NaCl. 1 mM EDTA. 0.1 % Polyethylene glycol 8,000 (Hampton Research Corporation),
2 mM Dimethyldecylphoshine oxide [Apo-10] (Fluka Corporation)

Setting [4] is: read-out: Inhibition Rate of PAI-1 Activity (%), Compound Concentration 5µM.
Setting [5] is: read-out: Inhibition Rate of PAI-1 Activity (%), Compound Concentration 10µM.
[6] abbreviates: read-out: Inhibition Rate of PAI-1 Activity (%), Compound Concentration 25µM.
Setting [7] is: read-out: Inhibition Rate of PAI-1 Activity (%).

T1 sequence (P05121 24-402): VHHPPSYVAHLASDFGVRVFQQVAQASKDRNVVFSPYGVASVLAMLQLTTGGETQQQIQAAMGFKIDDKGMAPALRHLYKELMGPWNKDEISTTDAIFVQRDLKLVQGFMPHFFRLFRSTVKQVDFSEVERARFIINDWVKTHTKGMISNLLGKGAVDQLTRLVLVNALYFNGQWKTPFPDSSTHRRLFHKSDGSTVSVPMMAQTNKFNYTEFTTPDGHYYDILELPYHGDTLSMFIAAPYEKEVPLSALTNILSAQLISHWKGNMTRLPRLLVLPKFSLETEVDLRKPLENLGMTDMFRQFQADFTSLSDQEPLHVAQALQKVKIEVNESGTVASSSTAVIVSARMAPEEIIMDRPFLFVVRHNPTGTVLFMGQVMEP

On to `CC(C)(C)c1ccc(Oc2ccc(-c3ccc(OC(F)(F)F)cc3)cc2CCC(=O)O)cc1` [Compound 13], for which, on recombinant human PAI-1 [1] (read-out: Inhibition Rate of PAI Activity (%), Compound Concentration 5µM), the inhibition at 5 µM is 83%. Also, the inhibition at 10 µM at recombinant human PAI-1 [1] (read-out: Inhibition Rate of PAI Activity (%), Compound Concentration 10µM) turned out to be 93%. Also, on recombinant human PAI-1 [2], the inhibition at 0.3 µM turned out to be 7%, the inhibition at 1 µM came to 14% and the inhibition at 3 µM turned out to be 41%. Also, on recombinant rat PAI-1, the inhibition at 0.3 µM is 0%, the inhibition at 1 µM stood at 14%, the inhibition at 3 µM stood at 69% and the inhibition at 10 µM was over 99%. Also, at recombinant human PAI-1 [3], the inhibition at 0.1 µM was determined as 5%, the inhibition at 0.3 µM worked out at 8%, the inhibition at 1 µM worked out at 36% and the inhibition at 3 µM came out at 99%.
As to `CC(C)(C)c1ccc(COc2cc(Oc3ccc(OC(F)(F)F)cc3)ccc2CCC(=O)O)cc1` [Compound 78], at recombinant human PAI-1 [1] (setting [4]), the inhibition at 5 µM turned out to be 24%. At recombinant human PAI-1 [1] (setting [5]), the inhibition at 10 µM came out at 60%. The inhibition at 25 µM at recombinant human PAI-1 [1] (setting [6]) was 98%. Also, on recombinant human PAI-1 [2], the inhibition at 0.3 µM amounted to 20%, the inhibition at 1 µM was found to be 39% and the inhibition at 3 µM came out at 83%. Besides, at recombinant rat PAI-1, the inhibition at 0.3 µM came out at 0%, the inhibition at 1 µM turned out to be 4%, the inhibition at 3 µM worked out at 71% and the inhibition at 10 µM turned out to be 90%. For the same molecule, at recombinant human PAI-1 [3], the inhibition at 0.1 µM is 0%, the inhibition at 0.3 µM was determined as 4%, the inhibition at 1 µM amounted to 21% and the inhibition at 3 µM was 96%.
In the case of `CC(C)(C)c1ccc(Oc2cc(-c3ccc(OC(F)(F)F)cc3)ccc2CCC(=O)O)cc1` [Compound 80], at recombinant human PAI-1 [1] (setting [7]), the inhibition at 5 µM was 43%, the inhibition at 10 µM turned out to be 82% and the inhibition at 25 µM came to 94%. In addition, at recombinant human PAI-1 [2], the inhibition at 0.3 µM turned out to be 0%, the inhibition at 1 µM came out at 0% and the inhibition at 3 µM was determined as 29%. On recombinant rat PAI-1, the inhibition at 0.3 µM came out at 0%, the inhibition at 1 µM turned out to be 11%, the inhibition at 3 µM amounted to 71% and the inhibition at 10 µM stood at 84%. In addition, on recombinant human PAI-1 [3], the inhibition at 0.1 µM was 3%, the inhibition at 0.3 µM was found to be 11%, the inhibition at 1 µM stood at 44% and the inhibition at 3 µM was over 99%.
In the case of `CC(C)(C)c1ccc(Oc2cc(Oc3ccc(OC(F)(F)F)cc3)ccc2CCC(=O)O)cc1` [Compound 90], at recombinant human PAI-1 [1] (setting [7]), the inhibition at 5 µM amounted to 42%, the inhibition at 10 µM was 83% and the inhibition at 25 µM stood at 96%. Besides, on recombinant human PAI-1 [2], the inhibition at 0.3 µM was found to be 2%, the inhibition at 1 µM turned out to be 9% and the inhibition at 3 µM stood at 70%. On recombinant rat PAI-1, the inhibition at 0.3 µM amounted to 0%, the inhibition at 1 µM worked out at 0%, the inhibition at 3 µM amounted to 77% and the inhibition at 10 µM was 90%. For the same molecule, at recombinant human PAI-1 [3], the inhibition at 0.1 µM was 4%, the inhibition at 0.3 µM came out at 6%, the inhibition at 1 µM was 22% and the inhibition at 3 µM came to 97%.
Take `CC(C)(C)c1ccc(Oc2ccc(Oc3ccc(OC(F)(F)F)cc3)cc2CCC(=O)O)cc1` [Compound 100]: on recombinant human PAI-1 [1] (setting [7]), the inhibition at 5 µM was 64%, the inhibition at 10 µM was 91% and the inhibition at 25 µM worked out at 98%. For the same molecule, on recombinant human PAI-1 [2], the inhibition at 0.3 µM was found to be 7%, the inhibition at 1 µM turned out to be 37% and the inhibition at 3 µM stood at 79%. For the same molecule, on recombinant rat PAI-1, the inhibition at 0.3 µM turned out to be 0%, the inhibition at 1 µM was 7%, the inhibition at 3 µM came out at 70% and the inhibition at 10 µM was over 99%. Also, on recombinant human PAI-1 [3], the inhibition at 0.1 µM was determined as 0%, the inhibition at 0.3 µM came out at 2%, the inhibition at 1 µM came to 29% and the inhibition at 3 µM is 93%.
In the case of `O=C(O)CCc1cc(-c2ccc(OC(F)(F)F)cc2)ccc1OCCCCc1ccccc1` [Compound 102], the inhibition at 5 µM on recombinant human PAI-1 [1] (setting [4]) was 43%. Also, on recombinant human PAI-1 [1] (setting [5]), the inhibition at 10 µM was 74%. Also, the inhibition at 25 µM at recombinant human PAI-1 [1] (setting [6]) was found to be 97%. Also, at recombinant human PAI-1 [2], the inhibition at 0.3 µM stood at 0%, the inhibition at 1 µM turned out to be 0% and the inhibition at 3 µM stood at 83%. At recombinant rat PAI-1, the inhibition at 0.3 µM is 0%, the inhibition at 1 µM is 12%, the inhibition at 3 µM was determined as 55% and the inhibition at 10 µM amounted to 93%. Besides, at recombinant human PAI-1 [3], the inhibition at 0.1 µM stood at 0%, the inhibition at 0.3 µM is 7%, the inhibition at 1 µM turned out to be 28% and the inhibition at 3 µM was determined as 94%.
Take `CC(C)(C)c1ccc(COc2ccc(-c3ccc(OC(F)(F)F)cc3)cc2OCC(=O)O)cc1` [Compound 105]: on recombinant human PAI-1 [1] (setting [4]), the inhibition at 5 µM came out at 38%. In addition, the inhibition at 10 µM at recombinant human PAI-1 [1] (setting [5]) amounted to 76%. The inhibition at 25 µM on recombinant human PAI-1 [1] (setting [6]) was over 99%. At recombinant human PAI-1 [2], the inhibition at 0.3 µM came out at 7%, the inhibition at 1 µM is 4% and the inhibition at 3 µM was 33%. For the same molecule, on recombinant rat PAI-1, the inhibition at 0.3 µM is 0%, the inhibition at 1 µM turned out to be 6%, the inhibition at 3 µM was determined as 74% and the inhibition at 10 µM stood at 90%. Besides, on recombinant human PAI-1 [3], the inhibition at 0.1 µM is 2%, the inhibition at 0.3 µM stood at 3%, the inhibition at 1 µM is 44% and the inhibition at 3 µM amounted to 99%.
Take `CC(C)(Oc1cc(-c2ccc(OC(F)(F)F)cc2)ccc1OCc1ccc(C(C)(C)C)cc1)C(=O)O` [Compound 106]: on recombinant human PAI-1 [1] (setting [4]), the inhibition at 5 µM amounted to 50%. For the same molecule, the inhibition at 10 µM at recombinant human PAI-1 [1] (setting [5]) came out at 85%. Besides, the inhibition at 25 µM at recombinant human PAI-1 [1] (setting [6]) is 93%. For the same molecule, on recombinant human PAI-1 [2], the inhibition at 0.3 µM was 0%, the inhibition at 1 µM came out at 7% and the inhibition at 3 µM came out at 17%. Moreover, on recombinant rat PAI-1, the inhibition at 0.3 µM is 0%, the inhibition at 1 µM came to 16%, the inhibition at 3 µM was determined as 85% and the inhibition at 10 µM was over 99%. In addition, at recombinant human PAI-1 [3], the inhibition at 0.1 µM turned out to be 0%, the inhibition at 0.3 µM was 8%, the inhibition at 1 µM worked out at 39% and the inhibition at 3 µM was determined as 97%.
